Values quoted from earlier work, collected in patent publication US12590297B2, “Differentiation method” (Koninklijke Nederlandse Akademie Van Wetenschappen, priority 2016, dated 2026).

Tests used:
[1] = molecular target: T1, glucocorticoid receptor (Homo sapiens, UniProt P04150); details: in comparison to cortisol; oral dosing; cited from earlier work
T1 sequence (P04150 1-777): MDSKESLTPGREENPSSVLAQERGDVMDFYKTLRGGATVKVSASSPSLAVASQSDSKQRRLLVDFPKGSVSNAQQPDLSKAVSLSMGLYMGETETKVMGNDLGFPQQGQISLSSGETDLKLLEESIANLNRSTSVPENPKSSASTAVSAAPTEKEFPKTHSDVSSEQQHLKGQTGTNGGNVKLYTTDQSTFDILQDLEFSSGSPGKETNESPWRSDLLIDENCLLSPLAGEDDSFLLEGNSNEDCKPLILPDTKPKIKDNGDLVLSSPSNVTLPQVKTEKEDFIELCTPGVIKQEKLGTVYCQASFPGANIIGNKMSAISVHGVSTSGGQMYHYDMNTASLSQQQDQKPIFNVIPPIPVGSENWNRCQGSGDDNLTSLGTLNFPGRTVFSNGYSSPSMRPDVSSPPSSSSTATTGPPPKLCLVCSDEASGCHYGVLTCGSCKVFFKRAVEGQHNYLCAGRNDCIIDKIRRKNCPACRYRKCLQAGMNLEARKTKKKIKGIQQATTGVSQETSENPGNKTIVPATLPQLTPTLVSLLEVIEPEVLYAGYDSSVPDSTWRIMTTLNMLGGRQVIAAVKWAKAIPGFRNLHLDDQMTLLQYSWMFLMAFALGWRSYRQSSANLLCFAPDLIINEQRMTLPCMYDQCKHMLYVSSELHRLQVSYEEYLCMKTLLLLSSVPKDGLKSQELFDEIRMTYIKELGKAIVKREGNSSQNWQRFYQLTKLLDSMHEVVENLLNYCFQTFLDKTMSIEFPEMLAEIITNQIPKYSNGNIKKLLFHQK

[2] = molecular target: T2, ALK5 (TGF-βR1) (Homo sapiens, UniProt P36897); details: high concentrations; p38 MAP kinase inhibitor; cited from earlier work
T2 sequence (P36897 34-503): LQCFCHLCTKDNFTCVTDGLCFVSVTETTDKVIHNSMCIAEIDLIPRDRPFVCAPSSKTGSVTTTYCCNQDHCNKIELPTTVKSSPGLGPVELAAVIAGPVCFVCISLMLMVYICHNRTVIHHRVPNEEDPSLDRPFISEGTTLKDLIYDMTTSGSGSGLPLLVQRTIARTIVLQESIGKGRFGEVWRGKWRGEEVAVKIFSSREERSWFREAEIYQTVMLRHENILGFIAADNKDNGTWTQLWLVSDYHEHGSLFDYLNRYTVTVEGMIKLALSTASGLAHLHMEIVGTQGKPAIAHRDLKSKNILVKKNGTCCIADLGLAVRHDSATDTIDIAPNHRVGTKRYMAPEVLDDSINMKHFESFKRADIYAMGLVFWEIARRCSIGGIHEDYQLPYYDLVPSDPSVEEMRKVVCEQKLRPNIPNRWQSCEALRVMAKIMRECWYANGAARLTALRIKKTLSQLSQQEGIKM

SMILES	Glucocorticoid potency [1]	concentration at which thought to inhibit ALK5 [2]
C[C@]12CCC(=O)C=C1CC[C@@H]1[C@@H]2C(=O)C[C@@]2(C)[C@H]1CC[C@]2(O)C(=O)CO [Cortisone]	0.8	
C[C@]12C=CC(=O)C=C1CC[C@@H]1[C@@H]2[C@@H](O)C[C@@]2(C)[C@H]1CC[C@]2(O)C(=O)CO [Prednisolone]	4	
C[C@]12C=CC(=O)C=C1CC[C@H]1[C@@H]3C[C@@H](O)[C@](O)(C(=O)CO)[C@@]3(C)C[C@H](O)[C@@]12F [Triamcinolone]	5	
C[S+]([O-])c1ccc(-c2nc(-c3ccc(F)cc3)c(-c3ccncc3)[nH]2)cc1 (centres unmarked) [SB-203580]		≥ 10 µM
C[C@]12CCC(=O)C=C1CC[C@@H]1[C@@H]2[C@@H](O)C[C@@]2(C)[C@H]1CC[C@]2(O)C(=O)CO [Cortisol (hydrocortisone), Cortisol]	1	
